Measured values from PubChem BioAssay AID1259407 (Chemical Carcinogenesis Research Information System (CCRIS), 2018).
Activity calls are given as the source filed them. The rule behind the calls is not given here.

Test system: CCRIS mutagenicity, Ames/micronucleus/aberration tests
Assay: CCRIS mutagenicity studies
[1] = Test System: AMES SALMONELLA TYPHIMURIUM, Strain/Indicator: TA100, Metabolic Activation: NONE, Method: STANDARD PLATE
[2] = Test System: AMES SALMONELLA TYPHIMURIUM, Strain/Indicator: TA1537, Metabolic Activation: NONE, Method: STANDARD PLATE
[3] = Test System: AMES SALMONELLA TYPHIMURIUM, Strain/Indicator: TA98, Metabolic Activation: NONE, Method: STANDARD PLATE

Measured: mutagenic call

[Cl][V]([Cl])[Cl]
inactive: Test System: AMES SALMONELLA TYPHIMURIUM, Strain/Indicator: TA98, Metabolic Activation: NONE, Method: PREINCUBATION inactive; negative | Test System: AMES SALMONELLA TYPHIMURIUM, Strain/Indicator: TA98, Metabolic Activation: RAT LIVER S-9, PHENOBARBITAL AND BETA-NAPHTHOFLAVONE, Method: PREINCUBATION inactive; negative | Test System: AMES SALMONELLA TYPHIMURIUM, Strain/Indicator: TA100, Metabolic Activation: NONE, Method: PREINCUBATION inactive; negative | Test System: AMES SALMONELLA TYPHIMURIUM, Strain/Indicator: TA100, Metabolic Activation: RAT LIVER S-9, PHENOBARBITAL AND BETA-NAPHTHOFLAVONE, Method: PREINCUBATION inactive; negative | Test System: AMES SALMONELLA TYPHIMURIUM, Strain/Indicator: TA1535, Metabolic Activation: NONE, Method: PREINCUBATION inactive; negative | Test System: AMES SALMONELLA TYPHIMURIUM, Strain/Indicator: TA1535, Metabolic Activation: RAT LIVER S-9, PHENOBARBITAL AND BETA-NAPHTHOFLAVONE, Method: PREINCUBATION inactive; negative | Test System: AMES SALMONELLA TYPHIMURIUM, Strain/Indicator: TA1537, Metabolic Activation: NONE, Method: PREINCUBATION inactive; negative | Test System: AMES SALMONELLA TYPHIMURIUM, Strain/Indicator: TA1537, Metabolic Activation: RAT LIVER S-9, PHENOBARBITAL AND BETA-NAPHTHOFLAVONE, Method: PREINCUBATION inactive; negative | Test System: AMES SALMONELLA TYPHIMURIUM, Strain/Indicator: TA1538, Metabolic Activation: NONE, Method: PREINCUBATION inactive; negative | Test System: AMES SALMONELLA TYPHIMURIUM, Strain/Indicator: TA1538, Metabolic Activation: RAT LIVER S-9, PHENOBARBITAL AND BETA-NAPHTHOFLAVONE, Method: PREINCUBATION inactive; negative | Test System: E.COLI, Strain/Indicator: WP2UVRA, Metabolic Activation: NONE, Method: PREINCUBATION inactive; negative | Test System: E.COLI, Strain/Indicator: WP2UVRA, Metabolic Activation: RAT LIVER S-9, PHENOBARBITAL AND BETA-NAPHTHOFLAVONE, Method: PREINCUBATION inactive; negative

O[C@H]1[C@H]2O[C@H]2c2c(ccc3ccc4ccccc4c23)[C@@H]1O
active: Test System: E. COLI, Strain/Indicator: CL101P, Metabolic Activation: NONE, Method: PREINCUBATION active; positive | Test System: E. COLI, Strain/Indicator: CL102P, Metabolic Activation: NONE, Method: PREINCUBATION active; positive | Test System: E. COLI, Strain/Indicator: CL103P, Metabolic Activation: NONE, Method: PREINCUBATION active; positive | Test System: E. COLI, Strain/Indicator: CL104P, Metabolic Activation: NONE, Method: PREINCUBATION active; positive | Test System: E. COLI, Strain/Indicator: CL105P, Metabolic Activation: NONE, Method: PREINCUBATION active; positive | Test System: E. COLI, Strain/Indicator: CL106P, Metabolic Activation: NONE, Method: PREINCUBATION active; positive

NN(CCO)c1ccn([C@@H]2O[C@H](CO)[C@@H](O)[C@H]2O)c(=O)n1
inactive: Test System: CHINESE HAMSTER V-79, Strain/Indicator: V-79/6-THIOGUANINE, Metabolic Activation: NONE, Method: REPLATING inactive; negative

C[n+]1ccn(CCC[n+]2ccc(C(N)=O)cc2)c1/C=N/O
inactive: Test System: AMES SALMONELLA TYPHIMURIUM, Strain/Indicator: TA97, Metabolic Activation: NONE, Method: STANDARD PLATE inactive; negative | Test System: AMES SALMONELLA TYPHIMURIUM, Strain/Indicator: TA97, Metabolic Activation: S-9, Method: STANDARD PLATE inactive; negative | [1] inactive; negative | Test System: AMES SALMONELLA TYPHIMURIUM, Strain/Indicator: TA100, Metabolic Activation: S-9, Method: STANDARD PLATE inactive; negative | Test System: AMES SALMONELLA TYPHIMURIUM, Strain/Indicator: TA104, Metabolic Activation: NONE, Method: STANDARD PLATE inactive; negative | Test System: AMES SALMONELLA TYPHIMURIUM, Strain/Indicator: TA104, Metabolic Activation: S-9, Method: STANDARD PLATE inactive; negative | [2] inactive; negative | Test System: AMES SALMONELLA TYPHIMURIUM, Strain/Indicator: TA1537, Metabolic Activation: S-9, Method: STANDARD PLATE inactive; negative | Test System: AMES SALMONELLA TYPHIMURIUM, Strain/Indicator: TA1538, Metabolic Activation: NONE, Method: STANDARD PLATE inactive; negative | Test System: AMES SALMONELLA TYPHIMURIUM, Strain/Indicator: TA1538, Metabolic Activation: S-9, Method: STANDARD PLATE inactive; negative

CC1(C)CC2=C(C=O)[C@]3(C=O)C[C@]3(C)[C@@H](O)[C@@H]2C1
inactive: [3] inactive; negative | [1] inactive; negative | Test System: AMES SALMONELLA TYPHIMURIUM, Strain/Indicator: TA2637, Metabolic Activation: NONE, Method: STANDARD PLATE inactive; negative

CCOC(=O)C(C)Br (configuration not stated)
active: [1] active; positive

Nc1ccc2c(c1)oc1ccccc12
inactive: [1] inactive; negative
active: [3] active; positive | Test System: AMES SALMONELLA TYPHIMURIUM, Strain/Indicator: TA98, Metabolic Activation: S-9, PHENOBARBITAL AND 5,6-BENZOFLAVONE, Method: STANDARD PLATE active; positive | Test System: AMES SALMONELLA TYPHIMURIUM, Strain/Indicator: TA100, Metabolic Activation: S-9, PHENOBARBITAL AND 5,6-BENZOFLAVONE, Method: STANDARD PLATE active; positive

CC12CCC(CC1)C(C)(C)O2
inactive: End Point: IN VITRO CHROMOSOMAL ABERRATIONS, Test System: CHINESE HAMSTER OVARY CELLS, Metabolic Activation: NONE inactive; negative; precipitation occurred at 663 ug/ml | End Point: IN VITRO CHROMOSOMAL ABERRATIONS, Test System: CHINESE HAMSTER OVARY CELLS, Metabolic Activation: RAT, LIVER, S-9, AROCLOR 1254 inactive; negative; precipitation occurred at all doses | Test System: AMES SALMONELLA TYPHIMURIUM, Strain/Indicator: TA97A, Metabolic Activation: NONE, Method: STANDARD PLATE inactive; negative | Test System: AMES SALMONELLA TYPHIMURIUM, Strain/Indicator: TA97A, Metabolic Activation: RAT LIVER S-9, AROCLOR 1254, Method: STANDARD PLATE inactive; negative | [3] inactive; negative | Test System: AMES SALMONELLA TYPHIMURIUM, Strain/Indicator: TA98, Metabolic Activation: RAT LIVER S-9, AROCLOR 1254, Method: STANDARD PLATE inactive; negative | [1] inactive; negative | Test System: AMES SALMONELLA TYPHIMURIUM, Strain/Indicator: TA100, Metabolic Activation: RAT LIVER S-9, AROCLOR 1254, Method: STANDARD PLATE inactive; negative | Test System: AMES SALMONELLA TYPHIMURIUM, Strain/Indicator: TA102, Metabolic Activation: NONE, Method: STANDARD PLATE inactive; negative | Test System: AMES SALMONELLA TYPHIMURIUM, Strain/Indicator: TA102, Metabolic Activation: RAT LIVER S-9, AROCLOR 1254, Method: STANDARD PLATE inactive; negative | Test System: E. coli, Strain/Indicator: WP2 IC185 trpE65, Metabolic Activation: None, Method: Plate incorporation inactive; negative | Test System: E. coli, Strain/Indicator: WP2 IC202 trpE65 oxyR/pKM101, Metabolic Activation: None, Method: Plate incorporation inactive; negative

Cc1cc(O)c2c(c1)C(=O)c1c(O)c(O)cc(O)c1C2=O
inactive: [2] inactive; negative
active: Test System: AMES SALMONELLA TYPHIMURIUM, Strain/Indicator: TA1537, Metabolic Activation: RAT, LIVER, S-9, PCB, Method: STANDARD PLATE active; positive

O=[N+]([O-])c1ccc2ccc3cc4c(c5ccc1c2c35)C1OC1[C@@H](O)[C@@H]4O (some centres not stated)
active: Test System: CHINESE HAMSTER OVARY, Strain/Indicator: CHO-K1-BH4 (HGPRT)/6-THIOGUANINE, Metabolic Activation: NONE active; positive
